Data from the Bradley open melting point set (2014).
Values joined by “and” are separate entries in the source; they are usually repeats but may differ in a detail not shown here. Equal values may be shown once.

SMILES	melting point
COc1ccc(N)c(C)c1 [4-Methoxy-2-methylaniline]	13.5 °C
COc1ccc(O)cc1 [4-Methoxyphenol]	56 °C
CC(=O)CC(C)C [4-Methylpentan-2-one]	-80 °C
O=[N+]([O-])c1cc[n+]([O-])c2ccccc12 [4-Nitroquinoline 1-oxide]	154 °C
C=CC1CC=CCC1 (stereo unspecified) [4-Vinylcyclohexene]	-101 °C
Nc1ccc(/N=C/c2cccc([N+](=O)[O-])c2)cc1 [4-[(E)-(3-Nitrobenzylidene)amino]aniline]	148 °C
CC(=O)Nc1ccc(O)cc1 [4-acetylaminophenol]	170 °C
CC(=O)c1ccc(C#N)cc1 [4-acetylbenzonitrile]	58 °C
Nc1cn[nH]c1 [4-amino-1h-pyrazole]	75 °C
N#Cc1cc(F)c(N)cc1F [4-amino-2,5-difluorobenzonitrile]	93 °C
Cc1cc(N)nc(C)n1 [4-amino-2,6-dimethylpyrimidine]	185 °C
N#Cc1ccc(N)cc1 [4-aminobenzonitrile]	85 °C
Cc1[nH]n(-c2ccccc2)c(=O)c1C(=O)c1ccccc1 [4-benzoyl-3-methyl-1-phenyl-5-pyrazolinone]	91 °C
OB(O)c1ccc(OCc2ccccc2)cc1 [4-benzyloxybenzeneboronic acid]	196 °C
[O-][n+]1ccc(OCc2ccccc2)cc1 [4-benzyloxypyridine n-oxide]	174 °C
Clc1cc(Br)ccc1I [4-bromo-2-chloro-1-iodobenzene]	34 °C
Cc1cc(Br)ccc1N [4-bromo-2-methylaniline] [listing 1 of 2 here]	52 °C
Cc1cc(Br)ccc1N [4-bromo-2-methylaniline] [listing 2 of 2 here]	58 °C
CC(C)(C)c1ccc(-c2ccc(Br)cc2)cc1 [4-bromo-4'-tert-butylbiphenyl]	142 °C

SMILES	melting point
NNC(=O)c1ccc(Br)cc1 [4-bromobenzhydrazide]	168 °C
O=C(O)c1ccc(Br)cc1 [4-bromobenzoic acid]	253 °C
O=C(O)Cc1ccc(Br)cc1 [4-bromophenylacetic acid]	117 °C
CSc1ccc(Br)cc1 [4-bromothioanisole]	39 °C
COc1cc(Cl)ccc1O [4-chloro-2-methoxyphenol]	17 °C
CCc1nc(N)nc(Cl)c1C [4-chloro-6-ethyl-5-methylpyrimidin-2-amine]	139 °C
ON=C(Cl)c1ccc(Cl)cc1 [4-chloro-N-hydroxybenzenecarboximidoyl chloride]	278 °C
O=Cc1ccc(Cl)cc1 [4-chlorobenzaldehyde]	46 °C and 48.5 °C and 47 °C
N#Cc1ccc(Cl)cc1 [4-chlorobenzonitrile]	92 °C
Clc1ccc(C(Cl)(Cl)Cl)cc1 [4-chlorobenzotrichloride]	6 °C
FC(F)(F)c1ccc(Cl)cc1 [4-chlorobenzotrifluoride]	-36 °C
OCc1ccc(Cl)cc1 [4-chlorobenzyl alcohol]	71 °C
N#CCc1ccc(Cl)cc1 [4-chlorobenzyl_cyanide]	31 °C
Clc1ccc(-c2ccccc2)cc1 [4-chlorobiphenyl]	78 °C
O=[N+]([O-])c1ccc(Cl)cc1 [4-chloronitrobenzene]	83.5 °C
Oc1ccc(Cl)c(O)c1 [4-chlororesorcinol]	107 °C
OC1CCOc2ccccc21 (stereo unspecified) [4-chromanol]	40 °C
CCCCCCCc1ccc(-c2ccc(C#N)cc2)cc1 [4-cyano-4'-n-heptylbiphenyl]	31 °C
N#Cc1ccc(C(N)=O)cc1 [4-cyanobenzamide]	227 °C

SMILES	melting point
Nc1ccc(C2CCCCC2)cc1 [4-cyclohexylaniline]	54 °C
CCOc1ccc(C=O)cc1 [4-ethoxybenzaldehyde]	14 °C
CCc1ccc(O)cc1 [4-ethylphenol]	47 °C
O=[N+]([O-])c1cc(F)ccc1O [4-fluoro-2-nitrophenol]	75 °C
O=S(=O)(Cl)Cc1ccc(F)cc1 [4-fluoro-alpha-toluenesulfonyl chloride]	60 °C
O=S(=O)(Cl)c1ccc(F)cc1 [4-fluorobenzenesulfonyl chloride]	37 °C
N#Cc1ccc(F)cc1 [4-fluorobenzonitrile]	36 °C
O=C(Cl)c1ccc(F)cc1 [4-fluorobenzoyl chloride]	10 °C
N#CCS(=O)(=O)c1ccc(F)cc1 [4-fluorophenylsulfonylacetonitrile]	91 °C
O=Cc1ccc(OCC(=O)O)cc1 [4-formylphenoxyacetic acid]	196 °C
COc1cc(C#N)ccc1O [4-hydroxy-3-methoxybenzonitrile]	87 °C
Oc1ccnc2ccc(C(F)(F)F)cc12 [4-hydroxy-6-(trifluoromethyl)quinoline]	267 °C
CC(=O)c1ccc(O)cc1 [4-hydroxyacetophenone]	108 °C
O=C(O)Cc1ccc(O)cc1 [4-hydroxyphenylacetic acid]	152 °C
COc1ccc(I)cc1 [4-iodoanisole]	50 °C
N#Cc1ccc(I)cc1 [4-iodobenzonitrile]	126 °C
Cc1ccc(I)cc1 [4-iodotoluene]	34 °C
CC(C)c1ccc(O)cc1 [4-isopropylphenol]	60 °C
COc1c(C)cc(B(O)O)cc1C [4-methoxy-3,5-dimethylbenzeneboronic acid]	237 °C

Other lines, results leading:

melting point	SMILES
22 °C	COc1ccc(C(=O)Cl)cc1 [4-Methoxybenzoyl chloride]
86 °C	CCCCc1ccc(/N=N/c2ccc(OC(=O)CC)cc2)cc1 [4-[(E)-(4-butylphenyl)diazenyl]phenyl propanoate]
260 °C	CC(=O)Nc1ccc(C(=O)O)cc1 [4-acetamidobenzoic acid]
259 °C	CC(=O)Nc1ccc(C(=O)O)cc1 [4-acetamidobenzoic_acid]
170 °C	CC(=O)Nc1ccc(O)cc1 [4-acetamidophenol]
183 °C	NC(=O)c1ccc(N)cc1 [4-aminobenzamide]
188 °C	Nc1ccc(C(=O)O)cc1 [4-aminobenzoic acid]
199 °C	O=C(O)c1ccc(C(=O)c2ccccc2)cc1 [4-benzoylbenzoic acid]
120 °C	O=C1CN(C(=O)OCc2ccccc2)CCN1 [4-benzyloxycarbonyl-2-piperazinone]
120 °C	Oc1ccc(OCc2ccccc2)cc1 [4-benzyloxyphenol]
225 °C	OB(O)c1ccc(Br)c(F)c1F [4-bromo-2,3-difluorobenzeneboronic acid]
64 °C	Nc1ccc(Br)c(Cl)c1 [4-bromo-3-chloroaniline]
57 °C	O=Cc1ccc(Br)cc1 [4-bromobenzaldehyde]
299 °C	O=C(O)c1ccc(Br)c(C(=O)O)c1 [4-bromoisophthalic acid]
4 °C	CCOc1ccc(Br)cc1 [4-bromophenetole]
100 °C	CCCCc1ccc(C(=O)O)cc1 [4-butylbenzoic_acid]
181 °C	OB(O)c1ccc(Cl)cc1C(F)(F)F [4-chloro-2-(trifluoromethyl)benzeneboronic acid]
46 °C	COc1ccc(Cl)cc1I [4-chloro-2-iodoanisole]
122 °C	Cc1cc(Cl)cc([N+](=O)[O-])c1N [4-chloro-2-methyl-6-nitroaniline]
214 °C	Cc1cc(C(=O)O)ccc1Cl [4-chloro-3-methylbenzoic acid]
44 °C	COc1ccc(Cl)c([N+](=O)[O-])c1 [4-chloro-3-nitroanisole]
100 °C	N#Cc1ccc(Cl)c([N+](=O)[O-])c1 [4-chloro-3-nitrobenzonitrile]

melting point	SMILES
97 °C	Clc1cc(N2CCCC2)ncn1 [4-chloro-6-(1-pyrrolidinyl)pyrimidine]
105 °C	O=C(O)Cc1ccc(Cl)cc1 [4-chlorophenylacetic acid]
120 °C	N#Cc1ccc(N=C=S)cc1 [4-cyanophenyl isothiocyanate]
220 °C	OB(O)c1ccc(C2CCCCC2)cc1 [4-cyclohexylbenzeneboronic acid]
96 °C	CCN(CC)c1ccc(C=NO)cc1 [4-diethylaminobenzaldoxime]
136 °C	CN(C)c1ccc(/C=C/C=O)cc1 [4-dimethylamino cinnamaldehyde]
74.5 °C	CN(C)c1ccc(C=O)cc1 [4-dimethylaminobenzaldehyde]
62 °C	CCOc1ccc(C#N)cc1 [4-ethoxybenzonitrile]
43 °C	CCC1=C(C)N=NC1C (stereo unspecified) [4-ethyl-3,5-dimethyl-1H-pyrazole]
152 °C	CCc1ccc(B(O)O)cc1 [4-ethylbenzeneboronic acid]
93 °C	CCc1ccc(OCC(=O)O)cc1 [4-ethylphenoxyacetic acid]
71 °C	N#Cc1ccc(F)cc1[N+](=O)[O-] [4-fluoro-2-nitrobenzonitrile]
34 °C	Cc1cc(N)ccc1F [4-fluoro-3-methylaniline]
106 °C	Cc1cc(CC(=O)O)ccc1F [4-fluoro-3-methylphenylacetic acid]
263 °C	OB(O)c1ccc(F)cc1 [4-fluorobenzeneboronic acid]
188 °C	O=C(O)c1ccc(F)cc1O [4-fluorosalicylic acid]
201 °C	O=Cc1ccc(B(O)O)cc1C(F)(F)F [4-formyl-3-(trifluoromethyl)benzeneboronic acid]
22 °C	O=CN1CCOCC1 [4-formylmorpholine]
114 °C	COc1cc(CO)ccc1O [4-hydroxy-3-methoxybenzyl alcohol]
207 °C	O=[N+]([O-])c1ccc(/C=C/c2ccc(O)cc2)cc1 [4-hydroxy-4'-nitrostilbene]
14 °C	COc1ccc(N)c(C)c1 [4-methoxy-2-methylaniline]
127 °C	COc1ccc(N)c([N+](=O)[O-])c1 [4-methoxy-2-nitroaniline]
